Results as given in US20200009173A1, “TRIAZOLE-CONTAINING MACROLIDES AND OPHTHALMIC USES THEREFOR” (Tetard, Inc., priority 2017, published 2020).
In brackets after ≈: the same amount, converted by molar mass. Read-outs that look alike come from different tables or passages of the source.

Key:
[1] = tested on: H. influenzae; experiment: MICs of solithromycin and comparator drugs, H. influenzae (30 species); assay type: cell-based
Excerpt: (§1) EXAMPLE. The formulations described herein show overall higher potency against ocular pathogens than commercial standards.
(§2) MICs (μg/ml) of Solithromycin and Comparator Drugs against Bacterial Species

[2] = tested on: Listeria monocytogenes; experiment: MIC, Listeria monocytogenes; assay type: cell-based; conditions: N = 10
[3] = tested on: Corynebacterium spp.; experiment: MIC, Corynebacterium spp.; assay type: cell-based; conditions: Corynebacterium; N = 10
[4] = tested on: Haemophilus parainfluenzae; experiment: MIC, Haemophilus parainfluenzae; assay type: cell-based; conditions: N = 11
[5] = tested on: CXCL8; experiment: CXCL8 (IL-8) production in LPS-stimulated PMA-differentiated U937 cells (ELISA); assay type: cell-based, human
Description: (§3) EXAMPLE. […] Cells. The human monocytic cell line U937 was obtained from the American Type Culture Collection (ATCC, Rockville, Md.). PBMCs from COPD patients were obtained from Brompton hospital and separated by AccuSPIN (Sigma-Aldrich). […] U937 cells were differentiated into adherent macrophage-like morphology by exposure to PMA (50 ng/ml) for 48 h in complete growth medium. Cell viability was assessed microscopically by trypan blue staining. Cell toxicity was determined by MTT assay as needed. This study was approved by the ethics committee of the Royal Brompton Hospitals, and all subjects gave written informed consent. Cytokine ELISA. TNFα and IL-8 concentrations in the supernatant of cell cultures were determined by sandwich ELISA according to the manufacturer's instructions (R&D Systems Europe, Abingdon, UK). Statistical analysis. The results were expressed as the mean±SEM. Comparisons of data in two groups were performed using the Student's t test or the Wilcoxon signed rank test. Multiple comparisons were made by one-way ANOVA with post hoc test (Dunnett's) as appropriate. The difference was considered significant at p<0.05. […] Anti-inflammatory effects of solithromycin in U937 cells.

[6] = tested on: Mycoplasma hominis; experiment: MIC, Mycoplasma hominis; assay type: cell-based; conditions: N = 13
[7] = tested on: Ureaplasma urealyticum; experiment: MIC, Ureaplasma urealyticum; assay type: cell-based; conditions: N = 10
[8] = tested on: Streptococcus pneumoniae; experiment: MIC, Streptococcus pneumoniae (150 strains); assay type: cell-based
[9] = tested on: Staphylococcus aureus; experiment: MIC, Staphylococcus aureus; assay type: cell-based; conditions: N = 201
[10] = tested on: Haemophilus influenzae; experiment: MIC, Haemophilus influenzae (100 strains); assay type: cell-based
[11] = tested on: S. pneumoniae; experiment: MICs of solithromycin and comparator drugs, S. pneumoniae (30 species); assay type: cell-based
Excerpt: as §1, §2

[12] = tested on: Neisseria gonorrhoeae; experiment: MIC, Neisseria gonorrhoeae; assay type: cell-based; conditions: N = 34
[13] = tested on: TNFα; experiment: TNFα production in LPS-stimulated PMA-differentiated U937 cells (ELISA); assay type: cell-based, human
Description: as §3

[14] = tested on: Streptococcus pyogenes; experiment: MIC, Streptococcus pyogenes; assay type: cell-based; conditions: Streptococcus pyogenes
[15] = tested on: MSSA; experiment: MICs of solithromycin and comparator drugs, MSSA (31 species); assay type: cell-based
Excerpt: as §1, §2

[16] = tested on: Peptostreptococcus spp.; experiment: MIC, Peptostreptococcus spp.; assay type: cell-based; conditions: Peptostreptococcus; N = 10
[17] = tested on: CA-MRSA; experiment: MIC, CA-MRSA; assay type: cell-based, Staphylococcus aureus; conditions: N = 30
[18] = tested on: MSRA; experiment: MICs of solithromycin and comparator drugs, MSRA (30 species); assay type: cell-based
Excerpt: as §1, §2

[19] = tested on: P. Acnes; experiment: MICs of solithromycin and comparator drugs against P. acnes; assay type: cell-based; conditions: for MIC50 / MIC90: Cutibacterium acnes, 51 species
Excerpt: EXAMPLE. The formulations described herein show overall higher potency against ocular pathogens than commercial standards. MICs (μg/ml) of Solithromycin and Comparator Drugs against P. Acnes (51 Species)

[20] = tested on: Mycoplasma pneumoniae; experiment: MIC, Mycoplasma pneumoniae (38 strains); assay type: cell-based
[21] = tested on: Moraxella catarrhalis; experiment: MIC, Moraxella catarrhalis; assay type: cell-based; conditions: N = 21
[22] = tested on: Viridans group streptococci; experiment: MIC, Viridans group streptococci; assay type: cell-based; conditions: N = 51
[23] = tested on: MMP9; experiment: MMP9 activity in PMA-stimulated U937 cells (gelatin zymography); assay type: cell-based, human
Description: EXAMPLE. […] Cells. The human monocytic cell line U937 was obtained from the American Type Culture Collection (ATCC, Rockville, Md.). PBMCs from COPD patients were obtained from Brompton hospital and separated by AccuSPIN (Sigma-Aldrich). […] U937 cells were differentiated into adherent macrophage-like morphology by exposure to PMA (50 ng/ml) for 48 h in complete growth medium. Cell viability was assessed microscopically by trypan blue staining. Cell toxicity was determined by MTT assay as needed. This study was approved by the ethics committee of the Royal Brompton Hospitals, and all subjects gave written informed consent. Zymography. MMP9 enzyme activity was measured by gelatin zymography. […] After electrophoresis, gels were incubated and rinsed with Novex® zymogram renaturing buffer (Invitrogen) for 30 min at room temperature. The gels were then rinsed in Novex® zymogram developing buffer (Invitrogen) for 30 min at room temperature prior to overnight incubation in the developing buffer at 37° C. After incubation, the gels were stained using a Colloidal Blue Staining Kit (Invitrogen) to visualize the zymogen bands. Statistical analysis. The results were expressed as the mean±SEM. Comparisons of data in two groups were performed using the Student's t test or the Wilcoxon signed rank test. Multiple comparisons were made by one-way ANOVA with post hoc test (Dunnett's) as appropriate. The difference was considered significant at p<0.05.

[24] = tested on: Legionella pneumophila; experiment: microbe, parasite or virus in culture; assay type: cell-based
[25] = tested on: Mycobacterium avium; experiment: MIC, Mycobacterium avium; assay type: cell-based; conditions: Mycobacterium avium; N = 30
[26] = tested on: S. epidermidis; experiment: MICs of solithromycin and comparator drugs, S. epidermidis (30 species); assay type: cell-based
Excerpt: as §1, §2

[27] = at a higher concentration (333 μM)

SMILES: CC[C@H]1OC(=O)[C@H](C)[C@@H](O[C@H]2C[C@@](C)(OC)[C@@H](O)[C@H](C)O2)[C@H](C)[C@@H](O[C@@H]2O[C@H](C)C[C@H](N(C)C)[C@H]2O)[C@](C)(O)C[C@@H](C)CN(C)[C@H](C)[C@@H](O)[C@]1(C)O [Azithromycin, azithromycin]
- I (intermediate susceptibility) [1]: 0%
- MIC Range [1]: 1 to 4 µg/mL
- NS (not susceptible) [1]: 0%
- S (susceptible) [1]: 100%
- MIC50 ([1]; Haemophilus influenzae): 2 µg/mL (≈ 2.67 µM)
- MIC90 ([1]; Haemophilus influenzae): 2 µg/mL (≈ 2.67 µM)
- MIC50 ([2]; Listeria monocytogenes): 0.5 µg/mL (≈ 0.668 µM)
- MIC90 ([2]; Listeria monocytogenes): 1 µg/mL (≈ 1.34 µM)
- MIC Range [2]: 0.5-1^ μg/mL
- MIC50 [3]: > 16 µg/mL
- MIC90 [3]: > 16 µg/mL
- MIC50 ([4]; Haemophilus parainfluenzae): 1 µg/mL (≈ 1.34 µM)
- MIC90 ([4]; Haemophilus parainfluenzae): 2 µg/mL (≈ 2.67 µM)
- MIC Range [4]: 0.5-2^ μg/mL
- effect on IL-8 production ([5]; concentration not given): did not inhibit
- MIC Range [6]: 0.5-4^ μg/mL
- MIC Range [7]: 0.5-4^ μg/mL
- MIC50 ([7]; Ureaplasma urealyticum): 2 µg/mL (≈ 2.67 µM)
- MIC90 ([7]; Ureaplasma urealyticum): 4 µg/mL (≈ 5.34 µM)
- MIC90 ([8]; N = 150): >16 µg/mL
- MIC90 ([8]; Streptococcus pneumoniae, 150 strains, read-out: MIC90): > 16 µg/mL
- MIC50 ([8]; Streptococcus pneumoniae, N = 150): > 16 µg/mL
- MIC50 [9]: > 16 µg/mL
- MIC90 [9]: > 16 µg/mL
- MIC90 ([10]; Haemophilus influenzae, 100 strains, read-out: MIC90): 2 µg/mL (≈ 2.67 µM)
- MIC50 ([10]; Haemophilus influenzae, N = 100): 2 µg/mL (≈ 2.67 µM)
- MIC90 ([10]; N = 100): 2 µg/mL (≈ 2.67 µM)
- MIC Range ([10]; N = 100): 0.25 to 4 µg/mL
- I (intermediate susceptibility) [11]: 3%
- NS (not susceptible) [11]: 23%
- S (susceptible) [11]: 73%
- MIC50 ([11]; Streptococcus pneumoniae): 0.06 µg/mL (≈ 0.0801 µM)
- MIC90 ([11]; Streptococcus pneumoniae): 8 µg/mL (≈ 10.7 µM)
- MIC Range [12]: 0.06 to 2 µg/mL
- MIC50 ([12]; Neisseria gonorrhoeae): 0.25 µg/mL (≈ 0.334 µM)
- MIC90 ([12]; Neisseria gonorrhoeae): 0.5 µg/mL (≈ 0.668 µM)
- effect on TNFα production ([13]; concentration not given): did not inhibit
- MIC50 [14]: > 16 µg/mL
- MIC90 ([14]; 100 strains): > 16 µg/mL
- MIC90 ([14]; N = 407 (CEM-101), N = 100 (azithromycin)): > 16 µg/mL
- I (intermediate susceptibility) [15]: 0%
- NS (not susceptible) [15]: 39%
- S (susceptible) [15]: 61%
- MIC50 ([15]; Staphylococcus aureus, MSSA): 2 µg/mL (≈ 2.67 µM)
- MIC90 ([15]; Staphylococcus aureus, MSSA): > 32 µg/mL
- MIC50 [16]: 8 µg/mL (≈ 10.7 µM)
- MIC90 [16]: > 64 µg/mL
- MIC Range [17]: >16 µg/mL
- MIC50 ([17]; Staphylococcus aureus, MRSA): > 16 µg/mL
- MIC90 ([17]; Staphylococcus aureus, MRSA): > 16 µg/mL
- MIC50 [18]: > 32 µg/mL
- MIC90 [18]: > 32 µg/mL
- I (intermediate susceptibility) ([18]; 30 species): 0%
- NS (not susceptible) ([18]; 30 species): 90%
- S (susceptible) ([18]; 30 species): 10%
- MIC50 [19]: 0.06 µg/mL (≈ 0.0801 µM)
- MIC90 [19]: 4 µg/mL (≈ 5.34 µM)
- MIC90 ([20]; Mycoplasma, 38 strains, read-out: MIC90): 0.0005 µg/mL (≈ 0.000668 µM)
- MIC50 ([20]; Mycoplasma, N = 38): 0.00025 µg/mL (≈ 0.000334 µM)
- MIC90 ([20]; N = 38): 0.0005 µg/mL (≈ 0.000668 µM)
- MIC50 ([21]; Moraxella catarrhalis): 0.03 µg/mL (≈ 0.0401 µM)
- MIC90 ([21]; Moraxella catarrhalis): 0.06 µg/mL (≈ 0.0801 µM)
- MIC Range [21]: 0.03 to 0.5 µg/mL
- MIC50 [22]: 0.12 µg/mL (≈ 0.16 µM)
- MIC90 [22]: 4 µg/mL (≈ 5.34 µM)
- MIC Range [22]: ≤0.008-16 ^ μg/mL
- inhibitory effect on MMP9 activity, lower than solithromycin [23]: 10 fold
- MIC50 ([24]; Legionella pneumophila): 1 µg/mL (≈ 1.34 µM)
- MIC90 ([24]; Legionella pneumophila): 2 µg/mL (≈ 2.67 µM)
- MIC90 ([24]; N = 30): 2 µg/mL (≈ 2.67 µM)
- MIC50 [25]: 16 µg/mL (≈ 21.4 µM)
- MIC90 [25]: 16 µg/mL (≈ 21.4 µM)
- I (intermediate susceptibility) [26]: 0%
- NS (not susceptible) [26]: 63%
- S (susceptible) [26]: 37%
- MIC50 ([26]; Staphylococcus epidermidis): > 32 µg/mL
- MIC90 ([26]; Staphylococcus epidermidis): > 32 µg/mL

SMILES: CC[C@H]1OC(=O)[C@H](C)[C@@H](O[C@H]2C[C@@](C)(OC)[C@@H](O)[C@H](C)O2)[C@H](C)[C@@H](O[C@@H]2O[C@H](C)C[C@H](N(C)C)[C@H]2O)[C@](C)(OC)C[C@@H](C)C(=O)[C@H](C)[C@@H](O)[C@]1(C)O [Clarithromycin, clarithromycin]
- IC50 ([5]; Homo sapiens, U-937, LPS, PMA-differentiated U937 cells, read-out: IC50 on CXCL8 release): 506 ± 44 µM
- effect on IL-8 production [5, 27]: modest effects
- IC50 ([13]; Homo sapiens, U-937, LPS, PMA-differentiated U937 cells, read-out: IC50 on TNFα release): 426 ± 63.9 µM
- effect on TNFα production [13, 27]: modest effects
- MIC Range [19]: ≤0.015 to 0.5 µg/mL
- MIC50 [19]: ≤ 0.015 µg/mL
- MIC90 [19]: 0.25 µg/mL (≈ 0.334 µM)
- inhibitory effect on MMP9 activity, lower than solithromycin [23]: 10 fold
